In patent US20240376363A1, “FLUORINE SUBSTITUTED CYCLOBUTENE COMPOUNDS, AND COMPOSITIONS, METHODS AND USES INCLUDING SAME” (HONEYWELL INTERNATIONAL INC., priority 2021, published 2024):

Legend:
heat of vaporization = type: physicochemical
[1] = miscibility with mineral oil; type: physicochemical; conditions: for Miscibility: with mineral oil, concentration up to which miscible
Excerpt: In addition, the compounds of the present invention have good miscibility with lubricants, including lubricants used in vapour compression refrigeration systems. For example, the Compounds 1 and 3 are fully miscible with e mineral oil at concentrations up to about 66.7 weight percent as indicated in the following table.

flash point (ASTM D3828) = type: physicochemical
Procedure: Flash Point refers the lowest temperature at which vapors of the liquid will […] as determined in accordance with ASTM D3828.
Non-flammable in the context of a thermal management composition or fluid means compounds or compositions which are determined to be non-flammable. The flash point of a thermal management composition or fluid refers the lowest temperature at which vapors of the composition will keep burning after the ignition source is removed as determined in accordance with ASTM D3828.

[2] = short term (4 hour) toxicity exposure; type: in vivo; conditions: 4 hour exposure
Excerpt: LC50 is a measure of the acute toxicity of a compound. The acute inhalation toxicity of a compound can be assessed using the method described in the OECD Guideline for Testing of Chemicals No. 403 “Acute Inhalation Toxicity” (2009), Method B.2. (Inhalation) of Commission Regulation (EC) No. 440/2008.

[3] = long term (28 day) toxicity exposure; type: in vivo; conditions: 28 day exposure

Row | SMILES | Normal Boiling Point (normal boiling point) [°C] | Heat of Vaporization (heat of vaporization) [kcal/mol] | other results
1 | COC1=C(Cl)C(F)(F)C1(F)F [Compound 4] | 110 | – | –
2 | FC1=C(OC(C(F)(F)F)C(F)(F)F)C(F)(F)C1(F)F [Compound 14, 1,3,3,4,4-pentafluoro-2-((1,1,1,3,3,3-hexafluoropropan-2-yl)oxy)cyclobut-1-ene] | – | 7.41 | –
3 | FC1=C(Oc2ccccc2)C(F)(F)C1(F)F [Compound 16, ((perfluorocyclobut-1-en-1-yl)oxy)benzene] | – | 10 | –
4 | FC(F)(F)C(OC1=C(OC(C(F)(F)F)C(F)(F)F)C(F)(F)C1(F)F)C(F)(F)F [Compound 15, 3,3,4,4-pentafluoro-1,2-bis((1,1,1,3,3,3-hexafluoropropan-2-yl)oxy) cyclobut-1-ene] | – | 8.13 | –
5 | FC1(F)C(Oc2ccccc2)=C(Oc2ccccc2)C1(F)F [Compound 17, ((perfluorocyclobut-1-ene-1,2-diyl)bis(oxy))dibenzene] | – | 17.9 | –
6 | FC(F)(F)OC1=C(OC(F)(F)F)C(F)(F)C1(F)F [Compound 13] | 144 | 7.65 | –
7 | COC1=C(OC)C(F)(F)C1(F)F [Compound 11, 3,3,4,4-tetrafluoro-1,2-dimethoxycyclobut-1-ene] | 127 | – | –
8 | FC1=CCC1(F)F [Compound 2, 1,4,4-trifluorocyclobut-1-ene] | 32 | – | Miscibility with mineral oil ([1]; ratio compound to mineral oil): Not miscible; Flash Point (flash point (ASTM D3828)): Flash point observed
9 | FC1(F)C(Cl)=C(Cl)C1(F)F [Compound 3, 1,2-dichloro-3,3,4,4-tetrafluorocyclobut-1-ene] | 58 | – | short term (4 hour) toxicity exposure [2]: failed; Miscibility [1]: Miscible up to 66.7%; Flash Point (flash point (ASTM D3828)): No flash point
10 | FC1=C(Cl)CC1(F)F [Compound 1, 1-chloro-2,3,3-trifluorocyclo-1-ene] | 52 | – | long term (28 day) toxicity exposure [3]: failed; Miscibility [1]: Miscible up to 66.7%; Flash Point (flash point (ASTM D3828)): No flash point
11 | FC(F)(F)COC1=C(Cl)C(F)(F)C1(F)F [Compound 18, 1-chloro-3,3,4,4-tetrafluoro-2-(2,2,2-trifluoroethoxy) cyclobut-1-ene] | – | 9.08 | –
